One assay has as its target PLK3 (Homo sapiens, UniProt Q9H4B4). Put plainly: kinase inhibition IC50. Format: biochemical.
The next assay has as its target PLK1 (Homo sapiens, UniProt P53350). Put plainly: kinase inhibition IC50. Format: biochemical.

PLK3, sequence (Q9H4B4 whole entry): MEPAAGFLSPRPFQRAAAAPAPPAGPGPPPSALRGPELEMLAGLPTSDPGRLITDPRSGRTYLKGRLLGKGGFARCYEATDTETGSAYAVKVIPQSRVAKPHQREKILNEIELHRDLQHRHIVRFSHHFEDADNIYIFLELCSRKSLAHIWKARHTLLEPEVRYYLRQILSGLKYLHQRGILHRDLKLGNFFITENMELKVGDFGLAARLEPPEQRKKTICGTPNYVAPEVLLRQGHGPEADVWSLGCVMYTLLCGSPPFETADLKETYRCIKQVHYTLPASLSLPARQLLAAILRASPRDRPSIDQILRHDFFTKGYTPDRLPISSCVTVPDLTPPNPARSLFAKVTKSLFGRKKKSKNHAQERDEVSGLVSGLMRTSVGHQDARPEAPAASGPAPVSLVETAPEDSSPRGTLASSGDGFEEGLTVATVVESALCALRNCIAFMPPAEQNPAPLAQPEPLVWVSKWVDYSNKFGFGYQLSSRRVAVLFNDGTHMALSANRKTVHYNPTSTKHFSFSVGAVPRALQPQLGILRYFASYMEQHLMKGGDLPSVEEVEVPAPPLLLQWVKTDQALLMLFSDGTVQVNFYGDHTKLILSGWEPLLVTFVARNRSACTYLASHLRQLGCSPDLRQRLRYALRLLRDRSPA
PLK1, sequence (P53350 2-603): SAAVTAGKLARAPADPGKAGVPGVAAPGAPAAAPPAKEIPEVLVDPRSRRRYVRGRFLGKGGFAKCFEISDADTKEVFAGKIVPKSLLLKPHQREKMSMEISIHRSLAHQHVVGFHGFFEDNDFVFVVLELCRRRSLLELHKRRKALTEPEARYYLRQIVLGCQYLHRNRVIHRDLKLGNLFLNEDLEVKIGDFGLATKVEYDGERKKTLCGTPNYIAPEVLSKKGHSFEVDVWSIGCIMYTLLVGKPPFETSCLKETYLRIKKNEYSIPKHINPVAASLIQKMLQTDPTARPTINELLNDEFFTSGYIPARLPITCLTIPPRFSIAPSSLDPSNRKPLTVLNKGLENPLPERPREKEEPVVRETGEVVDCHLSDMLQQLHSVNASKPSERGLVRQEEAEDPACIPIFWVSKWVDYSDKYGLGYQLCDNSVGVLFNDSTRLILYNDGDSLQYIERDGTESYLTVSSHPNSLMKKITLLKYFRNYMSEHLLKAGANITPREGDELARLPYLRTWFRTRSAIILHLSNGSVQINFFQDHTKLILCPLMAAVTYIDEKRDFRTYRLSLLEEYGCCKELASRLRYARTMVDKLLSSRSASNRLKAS

For the compound `CC[C@@H]1C(=O)N(C)c2cnc(Nc3ccc(C(=O)NC4CCC(N5C[C@@H](C)O[C@@H](C)C5)CC4)cc3OC)nc2N1C(C)C` (some centres unmarked) [BI 4834], the IC50 (commonly the concentration needed to halve the response being measured) against PLK3 worked out at 198 nM; on PLK1, 7.6 nM.

The record behind these values is paper PMC4206221 (Science signaling, 2011).
